Measured values as given in US8298793B2, “Methods for isolating proteons from plasma samples” (Auburn University, priority 2002, dated 2012).
Values joined by “and” are separate entries in the source; they are usually repeats but may differ in a detail not shown here. Equal values may be shown once. “Also recorded” adds a separate entry of the source. Where a name gives a salt, the structure may show the parent alone.

What was measured:
RG2 cells = assay: MTT cell proliferation assay on RG2 glioma cells; format: cell-based, mouse
Description: The impact of PNCs upon viability of various cultured cells was investigated using the tetrazolium salt (MTT) cell proliferation assay. RG2 (mouse brain glioma), F98 (rat brain glioma), Hs683 (human brain glioma), CTX TNA2 (rat transfected astrocyte), H9c2[2-1] (rat heart myocardium), 27FR (rat skin fibroblast), and SVGp12 (human brain astroglia) cells were obtained from American Type Culture Collection (ATCC) and maintained as recommended by ATCC. […] Cells were plated in Dulbecco's modified Eagle's growth medium ([MUT], Sigma Chemical Inc., St. […] PNCs were autoclaved at 120° C. and 20 psi for 15 minutes before adding to the cell cultures. […] MTT was reduced in metabolically active cells to form purple formazan crystals, which were dissolved by DMSO and quantified by a BIO-RADTM plate reader. For each cell type, a linear relationship between cell number and absorbance is established, enabling accurate, straightforward quantification of changes in proliferation. […] Catalog No. S5921), 100 μg, FW 466.5. Dissolve 100 μg staurospine into 214.3 μl • DMSO to equal a 1 mM stock solution. Store at -200° C. […] TX put on late afternoon. • Add staurospine, autoclaved shark PNC, and either 10%, 1%, or 0% FCS treatments to cells and incubate overnight.

[1] = tested on: 27FR (rat skin fibroblast) cells; assay: MTT cell proliferation assay on fibroblasts; format: cell-based; conditions: Fibro, Staurosporine, 1% FCS
Text: (§1) The impact of PNCs upon viability of various cultured cells was investigated using the tetrazolium salt (MTT) cell proliferation assay. RG2 ([…] brain glioma), F98 (rat brain glioma), Hs683 (human brain glioma), CTX TNA2 (rat transfected astrocyte), H9c2[2-1] (rat heart myocardium), 27FR (rat skin fibroblast), and SVGp12 (human brain astroglia) cells were obtained from American Type Culture Collection (ATCC) and maintained as recommended by ATCC. MTT cell proliferation assays are commercially available. See, e.g., MTT cell proliferation assay from ATCC. Cells were plated in Dulbecco's modified Eagle's growth medium ([…], Sigma Chemical Inc., St. […] PNCs were isolated from blood obtained from shark, dog, and rabbit using the ultrafiltration protocol described in Example 5. PNCs were autoclaved at 120° C. and 20 psi for 15 minutes before adding to the cell cultures. […] MTT was reduced in metabolically active cells to form purple formazan crystals, which were dissolved by DMSO and quantified by a BIO-RADTM plate reader. For each cell type, a linear relationship between cell number and absorbance is established, enabling accurate, straightforward quantification of changes in proliferation.

[2] = tested on: H9c2[2-1] (rat heart myocardium) cells; assay: MTT cell proliferation assay on myocardium cells; format: cell-based; conditions: Staurosporine, 1% FCS, concentration not given
Text: as §1

[3] = tested on: CTX TNA2 (rat transfected astrocyte) cells; assay: MTT cell proliferation assay on CTX astrocytes; format: cell-based; conditions: CTX astro, Staurosporine, 1% FCS
Text: as §1

[4] = tested on: SVGp12 (human brain astroglia) cells; assay: MTT cell proliferation assay on SVG astrocytes; format: cell-based; conditions: SVG astro, Staurosporine, 1% FCS, concentration not printed; for Absorbance at 550 nm (MTT), single well: listed as Staurosporine
Text: as §1

[5] = tested on: F98 (rat brain glioma) cells; assay: MTT cell proliferation assay on F98 glioma cells; format: cell-based; conditions: Staurosporine, 1% FCS, concentration not printed; for Absorbance at 550 nm (MTT), single well: listed as Staurosporine
Text: as §1

proteons = assay: Proteon formation in plasma, counted by dark-field microscopy; format: biochemical; conditions: for number of proteons visible by dark-field microscopy: added to proteons produced without chaotropic compounds, then 120° C. and 20 psi; for number of proteons with rising concentration of chaotropic compound: plasma with 0, 0.01, 0.1, 1, 4 and 8 M, 120° C., 20 psi, dark-field microscopy
[6] = RG2, 10% FCS, staurosporine 1 μM, Table 6
[7] = RG2, Staurosporine 100 urn, 1% FCS, Table 10
[8] = RG2, Staurosporine, 1% FCS, Table 10, concentration not given
[9] = Table 10, concentration not given
[10] = myocard, Table 10 second myocard column

**Q.** With `CN[C@@H]1C[C@H]2O[C@@](C)([C@@H]1OC)n1c3ccccc3c3c4c(c5c6ccccc6n2c5c31)C(=O)NC4` [staurosporine] as the molecule, how does the “Ab. Av. (Absorbance at 550 nm, MTT)” value (RG2 cells; [6]) read?
**A.** The value was 0.4053.

**Q.** And the “Absorbance at 550 nm (MTT), single well” value (RG2 cells; [6])?
**A.** Its value is 0.406 and 0.411 and 0.399.

**Q.** And the “Ab. Av. (Absorbance at 550 nm, MTT)” value (RG2 cells; [7])?
**A.** The value was 0.2893.

**Q.** What about the “Absorbance at 550 nm (MTT), single well” value (RG2 cells; [7]) of the same molecule?
**A.** The value was 0.272 and 0.279.

**Q.** What about the “Ab. Av. (Absorbance at 550 nm, MTT)” value (RG2 cells; [8]) of the same molecule?
**A.** The value was 0.1268.

**Q.** And the “Absorbance at 550 nm (MTT), single well” value (RG2 cells; [8])?
**A.** Its value is 0.149 and 0.12 and 0.119.

**Q.** And the “Ab Av. (Absorbance at 550 nm, MTT)” value (RG2 cells; RG2, stauro 1% FCS (1 μM per protocol b158), Table 7)?
**A.** The value was 0.09867.

**Q.** What about the “Ab. Av. (Absorbance at 550 nm, MTT)” value [1, 9] of the same molecule?
**A.** The value was 0.2757.

**Q.** And the “Absorbance at 550 nm (MTT), single well” value [1, 9]?
**A.** The value was 0.296 and 0.257 and 0.275.

**Q.** And the “Ab. Av. (Absorbance at 550 nm, MTT)” value ([1]; Table 10 second Fibro column, concentration not given)?
**A.** Its value is 0.169.

**Q.** What about the “Ab. Av. (Absorbance at 550 nm, MTT)” value ([2]; Myocard, Table 10 first Myocard column) of the same molecule?
**A.** Its value is 0.283.

**Q.** What about the “Ab. Av. (Absorbance at 550 nm, MTT)” value [2, 10] of the same molecule?
**A.** The value was 0.16.

**Q.** What about the “Absorbance at 550 nm (MTT), single well” value [2, 10] of the same molecule?
**A.** Its value is 0.176.

**Q.** And the “Ab. Av. (Absorbance at 550 nm, MTT)” value [3, 9]?
**A.** Its value is 0.1445.

**Q.** And the “Absorbance at 550 nm (MTT), single well” value [3, 9]?
**A.** Its value is 0.122 and 0.118 and 0.126.

**Q.** What about the “Ab. Av. (Absorbance at 550 nm, MTT)” value ([3]; Table 10 first CTX column, concentration not given) of the same molecule?
**A.** Its value is 0.3782.

**Q.** What about the “Ab. Av. (Absorbance at 550 nm, MTT)” value ([4]; Table 10 first SVG column) of the same molecule?
**A.** Its value is 0.128.

**Q.** And the “Absorbance at 550 nm (MTT), single well” value ([4]; Table 10 first SVG column)?
**A.** The value was 0.128 and 0.12 and 0.136.

**Q.** What about the “Ab. Av. (Absorbance at 550 nm, MTT)” value ([4]; Table 10 second SVG column) of the same molecule?
**A.** The value was 0.067.

**Q.** And the “Absorbance at 550 nm (MTT), single well” value ([4]; Table 10 second SVG column)?
**A.** The value was 0.067 and 0.066 and 0.068.

**Q.** And the “Ab. Av. (Absorbance at 550 nm, MTT)” value ([5]; Table 10 first F98 column)?
**A.** Its value is 0.1333.

**Q.** And the “Absorbance at 550 nm (MTT), single well” value ([5]; Table 10 first F98 column)?
**A.** The value was 0.136 and 0.138 and 0.12 and 0.139.

**Q.** What about the “Ab. Av. (Absorbance at 550 nm, MTT)” value ([5]; Table 10 second F98 column) of the same molecule?
**A.** The value was 0.1085.

**Q.** And the “Absorbance at 550 nm (MTT), single well” value ([5]; Table 10 second F98 column)?
**A.** Its value is 0.108 and 0.109.

**Q.** Which results are given for `N=C(N)N` [guanidine hydrochloride]?
**A.** number of proteons visible by dark-field microscopy (proteons): great reduction; number of proteons with rising concentration of chaotropic compound (proteons): decreased

**Q.** Which “effect on formation of proteons from plasma” value (proteons; 10 mM EDTA added) does the source give for `O=C(O)CN(CCN(CC(=O)O)CC(=O)O)CC(=O)O` [EDTA, ethylene diamine tetra acetate] here?
**A.** Its value is “prevented the formation of proteon; also recorded: production was quenched”.

**Q.** What does the source list for `NC(N)=O` [urea]?
**A.** number of proteons visible by dark-field microscopy (proteons): great reduction; number of proteons with rising concentration of chaotropic compound (proteons): decreased
